The values below come from patent US20040072775A1, “Enhancing the sensitivity of tumor cells to therapies” (priority 1994, published 2004).

pIC50: −log10 of the molar value.

Assay type in all cases: cell-based, human
In assay [1] the test system is T98G glioblastoma cells. Kind of assay: clonogenic assay after one hour cisplatin exposure, parental cells. As to conditions: clones counted 7 to 10 days later, read-out: concentration of cisplatin needed to achieve a 50% reduction in colony count. The procedure: 1). Cells. T98G glioblastoma cells (Mercer et al., “Negative growth regulation in a glioblastoma tumor cell line that conditionally expresses human wild-type p53.” (1990) Proc. Natl. Acad. Sci., USA, 87:6166-6170) were obtained from ATCC and cultured at 37° C. in 10% CO2 in Dulbecco's Modified Eagles Medium supplemented with 10% heat inactivated fetal bovine serum, gentamycin, nonessential amino acids, and sodium pyruvate. […] 5). Control parental T98G cells and T98 Gp53 cells which had been adapted 2 weeks to culture in the absence of the antibiotics G418 were plated in 24 well plates at about 2×10^4 cells per well. The next day they were exposed for one hour to varying concentrations of cisplatin (a chemotherapeutic agent) from 10 to 40 μM in increments of 10 μM. The cisplatin was removed after one hour and replaced with complete medium (DMEM+10% Fetal Bovine Serum) and cells were allowed to grow for 7 days. After 7 days, cells were counted or stained with crystal violet. In the latter case, absorbance at 540 nm is proportional to cell viability. For clonogenic assays, cells were replated following treatment in 6 well plates at 500-1000 cells per well. Clones were counted 7 to 10 days later by staining in 0.5% methylene blue, 70% ETOH. Colony counts from p53 transfectants and parental T98G glioblastoma cells were compared. […] Subsequent assays confirmed this increased sensitivity. […]

The test system of assay [2] is empty vector-transduced T98G cells. Nature of the assay: clonogenic assay after one hour cisplatin exposure, empty vector-transduced cells. As to conditions: clones counted 7 to 10 days later, read-out: concentration of cisplatin needed to achieve a 50% reduction in colony count.
Assay [3] has as its system T98 Gp53 cells. Kind of assay: clonogenic/growth assay after one hour cisplatin exposure, cells transduced with wild-type p53 gene. As to the method:
1). Cells. T98G glioblastoma cells (Mercer et al., “Negative growth regulation in a glioblastoma tumor cell line that conditionally expresses human wild-type p53.” (1990) Proc. Natl. Acad. Sci., USA, 87:6166-6170) were obtained from ATCC and cultured at 37° C. in 10% CO2 in Dulbecco's Modified Eagles Medium supplemented with 10% heat inactivated fetal bovine serum, gentamycin, nonessential amino acids, and sodium pyruvate.
2). Plasmids. A plasmid (pLp53RNL) containing the wild-type p53 gene and the neomycin (G418) resistance gene was used. The plasmid pLp53RNL was kindly provided by Dr. Martin Haas (University of California, San Diego), and has been previously described (Cheng et al., “Suppression of acute lymphoblastic leukemia by the human wild-type p53 gene,” (1992) Cancer Res., 53:222-226). This plasmid carries the retroviral sequence Lp53RNL in which wild-type p53 expression is driven from the Moloney murine leukemia virus (MoMLV) LTR. The neomycin resistance gene is driven from the Rous Sarcoma Virus (RSV) promoter.
3). Transfections. The plasmid was introduced into T98G cells using cationic liposomes. […]
5). […] After 7 days, cells were counted or stained with crystal violet. In the latter case, absorbance at 540 nm is proportional to cell viability. […] Clones were counted 7 to 10 days later by staining in 0.5% methylene blue, 70% ETOH. […]

In the case of `N.N.[Cl][Pt][Cl]` [cisplatin], the pIC50 in assay [1] is about 4.52; in assay [2], about 4.52; in assay [3] (cells transduced with wild-type p53 gene, one hour exposure, clones counted 7 to 10 days later, read-out: concentration of cisplatin needed to achieve a 50% reduction in colony count), 4.70 to 4.82. Moreover, in assay [3] (cisplatin 10 to 40 μM, one hour), the “sensitivity of T98 Gp53 cells to the effects of cisplatin compared with parental T98G cells (FIG. 1)” value is listed as “considerably more sensitive”.
